ChEMBL document CHEMBL2057159, “Methylation of imidazoline related compounds leads to loss of α₂-adrenoceptor affinity. Synthesis and biological evaluation of selective I₁ imidazoline receptor ligands” (Bioorg Med Chem, 2012)
Active and inactive are the calls of the source. No cut-off for these calls is given here.

Key:
[1] = Displacement of [3H]idazoxan from imidazoline I2 receptor in New Zealand rabbit renal cortex homogenate after 60 mins […]; design: species or system Oryctolagus cuniculus
[2] = target: T1, Alpha-2C adrenergic receptor (Homo sapiens, UniProt P18825); assay: Displacement of [3H]RX821001 from human alpha2C adrenoceptor expressed in CHO cells after 60 mins […]; format: cell-based
T1 sequence (P18825 whole entry): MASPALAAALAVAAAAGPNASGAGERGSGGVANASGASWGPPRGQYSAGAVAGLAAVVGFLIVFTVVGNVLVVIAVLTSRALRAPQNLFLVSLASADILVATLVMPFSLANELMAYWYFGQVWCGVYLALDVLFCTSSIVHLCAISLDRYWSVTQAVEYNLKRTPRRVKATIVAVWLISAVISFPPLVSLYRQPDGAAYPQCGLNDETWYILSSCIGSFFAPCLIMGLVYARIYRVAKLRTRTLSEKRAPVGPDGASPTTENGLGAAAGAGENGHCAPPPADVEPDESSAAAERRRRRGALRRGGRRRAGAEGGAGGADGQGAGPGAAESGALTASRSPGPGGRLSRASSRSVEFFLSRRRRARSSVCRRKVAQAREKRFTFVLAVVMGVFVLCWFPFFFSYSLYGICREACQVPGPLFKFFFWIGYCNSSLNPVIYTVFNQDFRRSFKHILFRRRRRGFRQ

[3] = target: T2, Alpha-2B adrenergic receptor (Homo sapiens, UniProt P18089); assay: Displacement of [3H]RX821001 from human alpha2B adrenoceptor expressed in CHO cells after 60 mins by gamma counter; format: cell-based
T2 sequence (P18089 whole entry): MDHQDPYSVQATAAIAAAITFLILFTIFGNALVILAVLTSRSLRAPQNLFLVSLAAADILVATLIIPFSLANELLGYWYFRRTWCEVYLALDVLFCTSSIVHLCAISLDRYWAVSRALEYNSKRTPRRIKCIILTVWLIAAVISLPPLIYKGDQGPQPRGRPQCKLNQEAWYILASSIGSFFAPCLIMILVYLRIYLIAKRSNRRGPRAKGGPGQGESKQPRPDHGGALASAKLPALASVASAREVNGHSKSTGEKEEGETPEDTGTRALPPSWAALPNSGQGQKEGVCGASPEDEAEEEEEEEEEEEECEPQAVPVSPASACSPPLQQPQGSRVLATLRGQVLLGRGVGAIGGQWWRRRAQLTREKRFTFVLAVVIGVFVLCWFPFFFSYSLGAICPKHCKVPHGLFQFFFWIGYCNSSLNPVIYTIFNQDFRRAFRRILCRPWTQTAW

[4] = target: T3, Alpha-2A adrenergic receptor (Homo sapiens, UniProt P08913); assay: Displacement of [3H]RX821001 from human alpha2A adrenoceptor expressed in CHO cells after 60 mins […]; format: cell-based
T3 sequence (P08913 whole entry): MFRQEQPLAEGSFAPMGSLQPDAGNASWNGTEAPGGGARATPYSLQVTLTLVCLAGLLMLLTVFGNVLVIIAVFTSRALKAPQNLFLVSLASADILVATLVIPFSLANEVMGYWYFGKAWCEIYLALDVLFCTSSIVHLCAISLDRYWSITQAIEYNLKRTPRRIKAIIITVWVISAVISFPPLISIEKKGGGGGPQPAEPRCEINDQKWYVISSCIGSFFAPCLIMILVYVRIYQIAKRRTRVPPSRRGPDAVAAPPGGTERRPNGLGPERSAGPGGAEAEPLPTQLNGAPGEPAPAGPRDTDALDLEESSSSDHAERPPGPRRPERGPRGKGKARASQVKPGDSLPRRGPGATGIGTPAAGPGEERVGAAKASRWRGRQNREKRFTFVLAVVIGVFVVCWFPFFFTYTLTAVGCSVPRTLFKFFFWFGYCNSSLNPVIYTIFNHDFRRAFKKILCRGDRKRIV

[5] = system: Rattus norvegicus; assay: Toxicity in spontaneous hypertensive rat assessed as vasoconstrictive activity at 1 mg/kg, iv; format: organism-based; design: dose 1 mg/kg, route intravenous; conditions: in vivo
[6] = target: Nischarin (Rattus norvegicus, UniProt Q4G017); assay: Displacement of [125I]paraiodoclonidine from imidazoline I1 receptor in rat PC12 cells after 30 mins by gamma counter
[7] = system: Rattus norvegicus; assay: Hypotensive activity in spontaneous hypertensive rat assessed as decrease in mean blood pressure at 1 mg/kg, iv measured after 5 mins relative to control; format: functional; design: scale not given: the % may be the effect or the level left
[8] = system: Rattus norvegicus; assay: Hypotensive activity in spontaneous hypertensive rat assessed as decrease in mean blood pressure at 10 mg/kg, iv measured continuously during 30 mins; format: functional, organism-based; design: dose 10 mg/kg
[9] = target: T4, Alpha-2A adrenergic receptor (Homo sapiens) (UniProt P08913); assay: Selectivity ratio of compound to rilmenidine for human alpha2A adrenoceptor expressed in CHO cells after 60 mins […]; format: cell-based
T4 sequence (whole entry): T3 sequence (P08913 whole entry)

[10] = target: T5, Alpha-2B adrenergic receptor (Homo sapiens) (UniProt P18089); assay: Selectivity ratio of compound to rilmenidine for human alpha2B adrenoceptor expressed in CHO cells after 60 mins […]; format: cell-based
T5 sequence (whole entry): T2 sequence (P18089 whole entry)

[11] = target: T6, Alpha-2C adrenergic receptor (Homo sapiens) (UniProt P18825); assay: Selectivity ratio of compound to rilmenidine for human alpha2C adrenoceptor expressed in CHO cells after 60 mins […]; format: cell-based
T6 sequence (whole entry): T1 sequence (P18825 whole entry)

[12] = system: PC-12; assay: Selectivity ratio of pKi for human alpha2C adrenoceptor to pKi for imidazoline I1 receptor in rat PC12 cell; format: cell-based
[13] = system: PC-12; assay: Selectivity ratio of pKi for human alpha2B adrenoceptor to pKi for imidazoline I1 receptor in rat PC12 cell; format: cell-based
[14] = system: PC-12; assay: Selectivity ratio of pKi for human alpha2A adrenoceptor to pKi for imidazoline I1 receptor in rat PC12 cell; format: cell-based
[15] = system: PC-12; assay: Selectivity ratio of pKi for imidazoline I2 receptor in New Zealand rabbit renal cortex to pKi for imidazoline I1 receptor in rat PC12 cell; format: cell-based

Chain of Nischarin (Q4G017 whole entry): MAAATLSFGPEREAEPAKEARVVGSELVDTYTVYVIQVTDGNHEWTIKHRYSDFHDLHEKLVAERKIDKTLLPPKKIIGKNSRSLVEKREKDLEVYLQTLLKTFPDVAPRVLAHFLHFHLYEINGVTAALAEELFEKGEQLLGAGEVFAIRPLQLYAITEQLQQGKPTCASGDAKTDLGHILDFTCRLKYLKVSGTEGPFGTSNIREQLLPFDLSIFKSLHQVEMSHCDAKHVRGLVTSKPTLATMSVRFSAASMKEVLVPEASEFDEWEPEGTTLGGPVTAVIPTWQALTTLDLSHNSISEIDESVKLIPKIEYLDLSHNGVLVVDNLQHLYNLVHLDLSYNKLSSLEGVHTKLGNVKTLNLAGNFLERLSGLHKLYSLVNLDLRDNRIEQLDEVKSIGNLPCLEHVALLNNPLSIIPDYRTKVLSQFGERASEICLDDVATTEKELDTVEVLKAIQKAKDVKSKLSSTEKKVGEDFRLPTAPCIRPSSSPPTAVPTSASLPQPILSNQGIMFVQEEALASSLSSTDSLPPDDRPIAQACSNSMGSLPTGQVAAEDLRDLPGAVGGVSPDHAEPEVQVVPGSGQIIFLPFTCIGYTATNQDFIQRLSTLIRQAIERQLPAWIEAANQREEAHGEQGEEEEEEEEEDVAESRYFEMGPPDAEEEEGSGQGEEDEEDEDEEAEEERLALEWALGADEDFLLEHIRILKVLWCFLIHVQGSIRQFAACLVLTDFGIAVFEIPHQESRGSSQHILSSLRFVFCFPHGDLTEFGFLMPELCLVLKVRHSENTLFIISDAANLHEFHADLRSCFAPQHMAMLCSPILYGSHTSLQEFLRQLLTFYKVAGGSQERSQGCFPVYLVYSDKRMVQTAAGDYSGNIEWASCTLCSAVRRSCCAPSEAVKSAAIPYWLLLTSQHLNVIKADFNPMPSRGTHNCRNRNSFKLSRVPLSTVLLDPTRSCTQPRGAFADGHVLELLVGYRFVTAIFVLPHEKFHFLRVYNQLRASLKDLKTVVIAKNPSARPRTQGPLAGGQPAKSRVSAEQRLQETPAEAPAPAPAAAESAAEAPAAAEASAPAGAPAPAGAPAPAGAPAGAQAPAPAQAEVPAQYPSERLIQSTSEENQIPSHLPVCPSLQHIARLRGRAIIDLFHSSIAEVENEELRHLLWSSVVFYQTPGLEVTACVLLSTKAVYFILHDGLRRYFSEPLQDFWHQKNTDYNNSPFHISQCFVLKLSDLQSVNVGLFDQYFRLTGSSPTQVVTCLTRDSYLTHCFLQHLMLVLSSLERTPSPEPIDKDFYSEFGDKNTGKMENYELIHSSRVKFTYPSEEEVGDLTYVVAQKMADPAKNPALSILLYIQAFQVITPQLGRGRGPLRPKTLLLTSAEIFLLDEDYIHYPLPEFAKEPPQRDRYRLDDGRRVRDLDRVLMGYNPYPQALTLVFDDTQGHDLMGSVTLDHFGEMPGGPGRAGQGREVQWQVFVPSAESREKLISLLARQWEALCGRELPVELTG

Row | SMILES | pKi [1] | Ki [2] [nM] | Ki [3] [nM] | Ki [4] [nM] | Activity [5] | Ki [6] [nM] | Activity [7] [%] | Activity [8] | Ratio [9] | Ratio [10] | Ratio [11] | Ratio pKi [12] | Ratio pKi [13] | Ratio pKi [14] | Ratio pKi [15]
1 | C1COC(NC(C2CC2)C2CC2)=N1 [RILMENIDINE] | < 5 | 12.6 | 42.7 | 36.3 |  |  |  |  |  |  |  |  |  |  | 
2 | CC1CNC(Nc2c(Cl)cccc2Cl)=N1 (centres undefined) | < 5 | 5750 | 1320 | 1950 | Non-toxic | 0.933 | 45 |  |  |  |  |  |  |  | 
3 | Clc1cccc(Cl)c1NC1=NCCN1 [CLONIDINE] | < 5 |  |  |  |  | 282 |  |  |  |  |  |  |  |  | 
4 | Clc1ccccc1NC1=NCCC1 | 6.1 | 5010 | 933 | 3020 |  | 77.6 |  |  |  |  |  |  |  |  | 
5 | CC1CCC(Nc2ccccc2Cl)=N1 (centres undefined) | < 5 | > 10000 | > 10000 | > 10000 | Non-toxic | 132 |  | inactive |  |  |  |  |  |  | 
6 | CC1COC(NC(C2CC2)C2CC2)=N1 (centres undefined) | < 5 | > 10000 | 2820 | 4900 | Non-toxic | 363 |  | inactive | 135 | 66 | > 794 |  |  |  | 
7 | CC1CCC(Nc2ccc(I)cc2Cl)=N1 (centres undefined) | < 5 |  |  |  |  |  |  |  |  |  |  | > 45700 | 19100 | 11700 | > 45700
8 | CC1CCC(=Nc2ccc(I)cc2Cl)N1 (centres undefined) |  | > 10000 | 4170 | 2570 |  | 0.219 |  |  |  |  |  |  |  |  | 
